The text below walks through data of ChEMBL document CHEMBL5584304, “Unlocking the Potential of Glutinol: Structural Diversification and Antifungal Activity against Phytopathogenic Fusarium Strains” (2024).

Type in all cases: functional
Holding throughout (conditions): time 24-48 hrs

Test [1] relates to Fusarium tucumaniae. Put plainly: Antifungal activity against Fusarium tucumaniae measured after 24 to 48 hrs by turbidimetry.
Test [2] deals with Fusarium graminearum. Put plainly: Antifungal activity against Fusarium graminearum measured after 24 to 48 hrs by turbidimetry.
The subject of test [3] is Fusarium solani. As to the kind of experiment: Antifungal activity against Fusarium solani measured after 24 to 48 hrs by turbidimetry.

Molecules are shown by their SMILES.

One may read the MIC as the lowest concentration found to suppress growth. With `CC1(C)CC[C@]2(C)CC[C@]3(C)[C@H]4CC=C5C(=CCC(=O)C5(C)C)[C@]4(C)CC[C@@]3(C)[C@@H]2C1`, the MIC in test [1] is > 50 µg/mL; in test [2] it was 118 µM; in test [3], > 50 µg/mL.

Turning to `CC1(C)CC[C@]2(C)CC[C@]3(C)[C@H]4CC=C5[C@@H](Cc6sc(N)nc6C5(C)C)[C@]4(C)CC[C@@]3(C)[C@@H]2C1`, the MIC in test [1] is 107 µM; in test [2], > 50 µg/mL; in test [3] it was > 50 µg/mL.

In the case of `CC1(C)CC[C@]2(C)CC[C@]3(C)[C@H]4CC=C5C(C)(C)C(=O)CC[C@@]5(O)[C@]4(C)CC[C@@]3(C)[C@@H]2C1`, the MIC was 113 µM in test [1], > 50 µg/mL in test [2] and 56.7 µM in test [3].

For `CC1(C)CC[C@]2(C)CC[C@]3(C)[C@H]4CC=C5[C@@H](CC[C@H](O)C5(C)C)[C@]4(C)CC[C@@]3(C)[C@@H]2C1` [GLUTINOL], the minimum inhibitory concentration (MIC) in test [1] was 117 µM; in test [2], > 50 µg/mL; in test [3], > 50 µg/mL.

In the case of `N#Cc1c[nH]cc1-c1cccc2c1OC(F)(F)O2` [FLUDIOXONIL], the MIC was found to be 17.8 µM in test [1], 17.8 µM in test [2] and 12.6 µM in test [3].

Take `Cc1cc2c(c(C)c1O)CC[C@H]1[C@@]2(C)CC[C@@]2(C)[C@@H]3CC(C)(C)CC[C@]3(C)CC[C@]12C`: the MIC in test [1] was 118 µM; in test [2], > 50 µg/mL; in test [3], > 50 µg/mL.

Turning to `CC1(C)CC[C@]2(C)CC[C@]3(C)[C@H]4CC=C5C(=CC6=NC(N)=N[C@]6(O)C5(C)C)[C@]4(C)CC[C@@]3(C)[C@@H]2C1`, the MIC was 108 µM in test [1], > 50 µg/mL in test [2] and > 50 µg/mL in test [3].

As for `CC1(C)CC[C@]2(C)CC[C@]3(C)[C@H]4CC=C5[C@@H](Cc6c([nH]c7ccccc67)C5(C)C)[C@]4(C)CC[C@@]3(C)[C@@H]2C1`, the MIC in test [1], in test [2] and in test [3] was > 50 µg/mL in each case.

Consider `CC1(C)CC[C@]2(C)CC[C@]3(C)[C@H]4CC=C5[C@@H](CC(Br)C(=O)C5(C)C)[C@]4(C)CC[C@@]3(C)[C@@H]2C1` (stereo partly drawn), for which the minimal inhibitory concentration (MIC) in test [1], in test [2] and in test [3] was > 50 µg/mL throughout.

On to `CC1(C)CC[C@]2(C)CC[C@]3(C)[C@H]4CC=C5[C@@H](CC(Br)(Br)C(=O)C5(C)C)[C@]4(C)CC[C@@]3(C)[C@@H]2C1`, for which the results for the MIC in test [1], in test [2] and in test [3] were 85.9 µM, > 50 µg/mL and > 50 µg/mL, respectively.

With `CC1(C)CC[C@]2(C)CC[C@]3(C)c4ccc5c(c4CC[C@@]3(C)[C@@H]2C1)C=CC(=O)C5(C)C`, the MIC in test [1] is 123 µM; in test [2] it was 123 µM; in test [3], > 50 µg/mL.

On to `C=C(C)C1=CC[C@H]2[C@@](C)(CC[C@@]3(C)[C@@H]4CC(C)(C)CC[C@]4(C)CC[C@]23C)[C@@H]1CCC#N`, for which the MIC in test [1] was 59.2 µM; in test [2] it was > 50 µg/mL; in test [3], 59.2 µM.

Turning to `CC1(C)CC[C@]2(C)CC[C@]3(C)[C@H]4CC=C5[C@@H](CC(C=O)=C(O)C5(C)C)[C@]4(C)CC[C@@]3(C)[C@@H]2C1`, the results for the MIC in test [1], in test [2] and in test [3] were 110 µM, 110 µM and 55.2 µM, respectively.

For `COC(=O)Nc1nc2ccccc2[nH]1` [CARBENDAZIM], the MIC in test [1] amounted to 4.09 µM; in test [2], 8.18 µM; in test [3], 4.09 µM.

As for `CC1(C)CC[C@]2(C)CC[C@]3(C)[C@H]4C=CC5=C(C=C(Br)C(=O)C5(C)C)[C@]4(C)CC[C@@]3(C)[C@@H]2C1`, the MIC in test [1] was 100 µM; in test [2], > 50 µg/mL; in test [3] it was > 50 µg/mL.

For `CC1(C)CC[C@]2(C)CC[C@]3(C)[C@H]4CC=C5C(=Cc6nc7ccccc7nc6C5(C)C)[C@]4(C)CC[C@@]3(C)[C@@H]2C1`, the MIC was 98.2 µM in test [1], > 50 µg/mL in test [2] and > 50 µg/mL in test [3].

Consider `CC1(C)CC[C@]2(C)CC[C@]3(C)[C@H]4CC=C5[C@@H](Cc6cnoc6C5(C)C)[C@]4(C)CC[C@@]3(C)[C@@H]2C1`, for which the results for the minimum inhibitory concentration (MIC) in test [1], in test [2] and in test [3] were 55.8 µM, > 50 µg/mL and 55.8 µM, respectively.

Consider `CC1(C)CC[C@]2(C)CC[C@]3(C)[C@H]4CC=C5[C@@H](Cc6cnn(-c7nc8ccccc8s7)c6C5(C)C)[C@]4(C)CC[C@@]3(C)[C@@H]2C1`, for which the minimal inhibitory concentration (MIC) is 85.9 µM in test [1], 85.9 µM in test [2] and 43 µM in test [3].

On to `COC(=O)N(OC)c1ccccc1COc1ccn(-c2ccc(Cl)cc2)n1` [PYRACLOSTROBIN], for which the MIC in test [1] turned out to be 1.01 µM; in test [2] it was 1.01 µM; in test [3], 1.42 µM.

In the case of `CC1(C)CC[C@]2(C)CC[C@]3(C)[C@H]4CC=C5[C@@H](CCC(=O)C5(C)C)[C@]4(C)CC[C@@]3(C)[C@@H]2C1` [GLUTINONE], the values for the minimum inhibitory concentration (MIC) in test [1], in test [2] and in test [3] were 118 µM, 118 µM and > 50 µg/mL, respectively.

As to `CC1(C)CC[C@]2(C)CC[C@]3(C)[C@H]4CC=C5C(=CC(=O)C(=O)C5(C)C)[C@]4(C)CC[C@@]3(C)[C@@H]2C1`, the results for the MIC in test [1], in test [2] and in test [3] were > 50 µg/mL, > 50 µg/mL and 114 µM, respectively.

Turning to `CC1(C)CC[C@]2(C)CC[C@]3(C)[C@H]4C=CC5=C(C=CC(=O)C5(C)C)[C@]4(C)CC[C@@]3(C)[C@@H]2C1`, the figures for the minimum inhibitory concentration (MIC) in test [1], in test [2] and in test [3] were 119 µM, > 50 µg/mL and > 50 µg/mL, respectively.

Regarding `CC(=O)O[C@H]1CC[C@@H]([C@]2(C)CC[C@@]3(C)[C@@H]4CC(C)(C)CC[C@]4(C)CC[C@]3(C)[C@H]2CC=O)C(=O)C1(C)C`, the values for the MIC in test [1], in test [2] and in test [3] were 49.9 µM, 99.8 µM and 49.9 µM, respectively.

Take `CC1(C)CC[C@]2(C)CC[C@]3(C)[C@@H](CC=O)[C@](C)([C@@H]4CC[C@H](O)C(C)(C)C4=O)CC[C@@]3(C)[C@@H]2C1`: the figures for the MIC in test [1], in test [2] and in test [3] were 109 µM, 54.5 µM and 109 µM, respectively.

As for `CC1(C)CC[C@]2(C)CC[C@]3(C)[C@H]4CC=C5C(=Cc6n[nH]c(=S)nc6C5(C)C)[C@]4(C)CC[C@@]3(C)[C@@H]2C1`, the values for the MIC in test [1], in test [2] and in test [3] were 102 µM, 50.8 µM and 25.4 µM, respectively.

For the molecule `CC1(C)CC[C@]2(C)CC[C@]3(C)c4ccc5c(c4CC[C@@]3(C)[C@@H]2C1)C=C(Br)C(=O)C5(C)C`, the MIC in test [1] is 51.7 µM; in test [2], 51.7 µM; in test [3], > 50 µg/mL.
